According to ChEMBL document CHEMBL4043232, “A mimetic of the mSin3-binding helix of NRSF/REST ameliorates abnormal pain behavior in chronic pain models” (2017):
Activity calls are given as the source filed them.

Key:
[1] = tested on: Mus musculus; assay: Antinociceptive activity in partial sciatic nerve ligation C57BL/6J mouse model of neuropathic pain assessed as reduction in C-fiber stimulated hyposensitivity at 10 mg/kg, ip administered daily from day 5 to day 11 measured on day 12; format: functional, organism-based
[2] = tested on: Mus musculus; assay: Antinociceptive activity in intermittent psychological stress treated partial sciatic nerve ligation C57BL/6J mouse model of fibromyalgia assessed as paw withdrawal latency time at 10 mg/kg, ip measured on day 5 (reference value: 4 sec); format: functional
[3] = tested on: Mus musculus; assay: Antinociceptive activity in partial sciatic nerve ligation C57BL/6J mouse model of neuropathic pain assessed as reduction in peripheral morphine analgesia at 10 mg/kg, ip administered daily from day 5 to day 11 measured on day 12; format: functional, organism-based
[4] = tested on: Mus musculus; assay: Antinociceptive activity in intermittent cold stress treated partial sciatic nerve ligation C57BL/6J mouse model of fibromyalgia assessed as reversal of thermal hyperalgesia at 10 mg/kg, ip administered daily from day 5 to day 11 measured on day 12; format: functional, organism-based
[5] = target: T1, Paired amphipathic helix protein Sin3b (Mus musculus) (UniProt Q62141); assay: Binding affinity to N-terminal GST-tagged mouse Sin3B PAH1 domain (28 to 107 residues) expressed in Escherichia coli BL21 (DE3) assessed as chemical shift perturbations at 100 uM by 1H-15N HSQC titration analysis
T1 sequence (whole entry): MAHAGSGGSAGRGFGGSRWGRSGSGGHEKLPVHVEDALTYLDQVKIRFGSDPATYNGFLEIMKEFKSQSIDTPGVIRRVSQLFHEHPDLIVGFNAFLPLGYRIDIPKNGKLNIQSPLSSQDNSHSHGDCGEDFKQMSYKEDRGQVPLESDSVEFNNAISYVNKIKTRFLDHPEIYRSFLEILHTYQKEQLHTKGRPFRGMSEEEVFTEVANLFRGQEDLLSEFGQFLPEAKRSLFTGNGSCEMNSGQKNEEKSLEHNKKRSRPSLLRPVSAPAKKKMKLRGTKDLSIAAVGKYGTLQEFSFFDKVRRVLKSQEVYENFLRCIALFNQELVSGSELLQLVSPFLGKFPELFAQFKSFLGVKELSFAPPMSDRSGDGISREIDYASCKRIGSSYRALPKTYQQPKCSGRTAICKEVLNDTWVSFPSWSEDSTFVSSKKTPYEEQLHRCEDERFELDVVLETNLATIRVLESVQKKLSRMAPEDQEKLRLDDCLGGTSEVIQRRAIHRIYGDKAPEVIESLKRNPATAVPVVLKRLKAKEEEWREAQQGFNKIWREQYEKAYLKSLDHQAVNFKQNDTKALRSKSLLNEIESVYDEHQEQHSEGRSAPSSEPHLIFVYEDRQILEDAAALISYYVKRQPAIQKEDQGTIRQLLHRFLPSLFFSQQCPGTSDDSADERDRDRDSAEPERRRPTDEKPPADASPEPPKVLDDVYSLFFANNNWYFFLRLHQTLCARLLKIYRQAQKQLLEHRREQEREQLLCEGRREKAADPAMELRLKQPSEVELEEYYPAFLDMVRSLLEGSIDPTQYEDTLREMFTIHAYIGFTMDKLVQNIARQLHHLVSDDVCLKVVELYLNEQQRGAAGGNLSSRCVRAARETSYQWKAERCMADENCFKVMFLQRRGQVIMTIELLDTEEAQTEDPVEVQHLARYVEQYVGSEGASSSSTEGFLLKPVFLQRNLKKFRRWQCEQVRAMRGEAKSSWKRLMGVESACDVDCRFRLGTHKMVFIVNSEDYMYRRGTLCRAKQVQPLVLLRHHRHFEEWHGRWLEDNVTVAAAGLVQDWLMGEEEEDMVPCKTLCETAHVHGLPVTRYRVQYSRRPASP

[6] = tested on: Mus musculus; assay: Antinociceptive activity in partial sciatic nerve ligation C57BL/6J mouse model of neuropathic pain assessed as C-fiber stimulated paw withdrawal threshold at 10 mg/kg, ip measured on day 5 (reference value: 3 microA); format: functional
[7] = tested on: Mus musculus; assay: Antinociceptive activity in partial sciatic nerve ligation C57BL/6J mouse model of neuropathic pain assessed as C-fiber stimulated paw withdrawal threshold at 10 mg/kg, ip measured on day 12 (reference value: 6 microA); format: functional
[8] = tested on: Mus musculus; assay: Antinociceptive activity in intermittent cold stress treated partial sciatic nerve ligation C57BL/6J mouse model of fibromyalgia assessed as paw withdrawal latency time at 10 mg/kg, ip measured on day 12 (reference value: 13 sec); format: functional
[9] = tested on: Mus musculus; assay: Antinociceptive activity in intermittent cold stress treated partial sciatic nerve ligation C57BL/6J mouse model of fibromyalgia assessed as paw withdrawal latency time at 10 mg/kg, ip measured on day 5 (reference value: 10 sec); format: functional
[10] = tested on: Mus musculus; assay: Antinociceptive activity in intermittent psychological stress treated partial sciatic nerve ligation C57BL/6J mouse model of fibromyalgia assessed as reduction in central morphine analgesia at 10 mg/kg, ip administered daily from day 5 to day 11 measured on day 12; format: functional, organism-based
[11] = tested on: Mus musculus; assay: Antinociceptive activity in intermittent psychological stress treated partial sciatic nerve ligation C57BL/6J mouse model of fibromyalgia assessed as reversal of thermal hyperalgesia at 10 mg/kg, ip administered daily from day 5 to day 11 measured on day 12; format: functional, organism-based
[12] = tested on: Mus musculus; assay: Antinociceptive activity in intermittent psychological stress treated partial sciatic nerve ligation C57BL/6J mouse model of fibromyalgia assessed as paw withdrawal latency time at 10 mg/kg, ip measured on day 12 (reference value: 4 sec); format: functional
[13] = tested on: Mus musculus; assay: Antinociceptive activity in intermittent psychological stress treated partial sciatic nerve ligation C57BL/6J mouse model of fibromyalgia assessed as paw withdrawal latency time at 10 mg/kg, ip measured on day 19 (reference value: 3 sec); format: functional
[14] = tested on: Mus musculus; assay: Antinociceptive activity in intermittent cold stress treated partial sciatic nerve ligation C57BL/6J mouse model of fibromyalgia assessed as reduction in central morphine analgesia at 10 mg/kg, ip administered daily from day 5 to day 11 measured on day 12; format: functional, organism-based
[15] = tested on: Mus musculus; assay: Antinociceptive activity in intermittent psychological stress treated partial sciatic nerve ligation C57BL/6J mouse model of fibromyalgia assessed as paw withdrawal latency time at 10 mg/kg, ip measured on day 5 (reference value: 3 sec); format: functional
[16] = tested on: Mus musculus; assay: Antinociceptive activity in intermittent psychological stress treated partial sciatic nerve ligation C57BL/6J mouse model of fibromyalgia assessed as paw withdrawal latency time at 10 mg/kg, ip measured on day 12 (reference value: 3 sec); format: functional
[17] = target: T1, Paired amphipathic helix protein Sin3b (Mus musculus); assay: Inhibition of N-terminal GST-tagged mouse Sin3B PAH1 domain (28 to 107 residues) expressed in Escherichia coli BL21 (DE3) binding to NRSF/REST at 100 uM by 1H STD-NMR spectrometric analysis
[18] = tested on: Mus musculus; assay: Antinociceptive activity in intermittent psychological stress treated partial sciatic nerve ligation C57BL/6J mouse model of fibromyalgia assessed as paw withdrawal latency time at 10 mg/kg, ip measured on day 19 (reference value: 4 sec); format: functional

What does the source list for `CC[C@H]1ON(C(=O)OC(C)C)[C@H]2CN(CCC(C)C)C(=O)[C@H](CCSC)N2C1=O`?
Activity [1]: Active; Time [2]: 4 s; Activity [3]: Active; Activity [4]: Active; Activity [5]: Active; Activity [6]: 3 microA; Activity [7]: 6 microA; Time [8]: 13 s; Time [9]: 10 s; Activity [10]: Active; Activity [11]: Active; Time [12]: 4 s; Time [13]: 3 s; Activity [14]: Active; Time [15]: 3 s; Time [16]: 3 s; inhibition [17]: Active; Time [18]: 4 s

For `CCCC[C@H]1C(=O)N(CCC(C)C)C[C@@H]2N(C(=O)OC(C)C)CC3(CCCCC3)C(=O)N21`, which inhibition [17] is on record?
Its inhibition is “Active”.
